From PubChem BioAssay AID2060896 (Molecular Pharmacology Branch, DTP, NCI, 2025)
pIC50: −log10 of the molar value.

System: 941728-121-R-J1-PDC complex spheroid viability
Assay: Anticancer human tumor 941728-121-R-J1-PDC patient-derived lung adenocarcinoma cell line growth inhibition [RAS]
Conditions: for pIC50: curve of first compound; for viability, T/C: stronger effect = lower value; active means viability on the fitted dose curve at most 10% of control; inactive means the rest
Method in brief: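 Multi-cell-type spheroids: tumor cells plus HUVEC endothelial cells and mesenchymal stem cells. RAS-pathway inhibitors were combined with targeted agents, each dosed in half-log steps down from clinical Cmax, or from 10 microM when Cmax was unknown.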

[1] = second compound 0.000949 µM, first compound 0.000949 µM
[2] = second compound 0.000949 µM, first compound 0.003 µM
[3] = second compound 0.000949 µM, first compound 0.00949 µM
[4] = second compound 0.000949 µM, first compound 0.03 µM
[5] = second compound 0.000949 µM, first compound 0.0949 µM
[6] = second compound 0.000949 µM, first compound 0.3 µM
[7] = second compound 0.003 µM, first compound 0.000949 µM
[8] = second compound 0.003 µM, first compound 0.003 µM
[9] = second compound 0.003 µM, first compound 0.00949 µM
[10] = second compound 0.003 µM, first compound 0.03 µM
[11] = second compound 0.003 µM, first compound 0.0949 µM
[12] = second compound 0.003 µM, first compound 0.3 µM
[13] = second compound 0.00949 µM, first compound 0.000949 µM
[14] = second compound 0.00949 µM, first compound 0.003 µM
[15] = second compound 0.00949 µM, first compound 0.00949 µM
[16] = second compound 0.00949 µM, first compound 0.03 µM
[17] = second compound 0.00949 µM, first compound 0.0949 µM
[18] = second compound 0.00949 µM, first compound 0.3 µM
[19] = second compound 0.03 µM, first compound 0.000949 µM
[20] = second compound 0.03 µM, first compound 0.003 µM
[21] = second compound 0.03 µM, first compound 0.00949 µM
[22] = second compound 0.03 µM, first compound 0.03 µM
[23] = second compound 0.03 µM, first compound 0.0949 µM
[24] = second compound 0.03 µM, first compound 0.3 µM
[25] = second compound 0.0949 µM, first compound 0.000949 µM
[26] = second compound 0.0949 µM, first compound 0.003 µM
[27] = second compound 0.0949 µM, first compound 0.00949 µM
[28] = second compound 0.0949 µM, first compound 0.03 µM
[29] = second compound 0.0949 µM, first compound 0.0949 µM
[30] = second compound 0.0949 µM, first compound 0.3 µM
[31] = second compound 0.3 µM, first compound 0.000949 µM
[32] = second compound 0.3 µM, first compound 0.003 µM
[33] = second compound 0.3 µM, first compound 0.00949 µM
[34] = second compound 0.3 µM, first compound 0.03 µM
[35] = second compound 0.3 µM, first compound 0.0949 µM
[36] = second compound 0.3 µM, first compound 0.3 µM
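Further: spheroids exposed to compounds for 7 days before readout.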
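Wherever viability, T/C is given: 100% = DMSO vehicle control viability.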

C=CC(=O)N1CCN(c2nc(OCC3CCCN3C)nc3c(F)c(-c4nc(N)cc(C)c4C(F)(F)F)c(Cl)cc23)C(C)C1 (stereo unspecified) + CCn1c(-c2cccnc2C(C)OC)c2c3cc(ccc31)N1CCOC(CC(NC(=O)C(C(C)C)N(C)C(=O)C3(F)CCN(C(=O)C#CC(C)(C)N(C)C)CC3)C(=O)N3CCCC(N3)C(=O)OCC(C)(C)C2)C1
> 8.50: pIC50 (second compound 0.000949 µM) | pIC50 (second compound 0.003 µM) | pIC50 (second compound 0.00949 µM) | pIC50 (second compound 0.03 µM) | pIC50 (second compound 0.0949 µM) | pIC50 (second compound 0.3 µM)
inactive: viability, T/C (second compound 0.000949 µM, first compound 0.00316 µM) 22.3% | viability, T/C (second compound 0.000949 µM, first compound 0.01 µM) 23.4% | viability, T/C (second compound 0.000949 µM, first compound 0.0316 µM) 20.6% | viability, T/C (second compound 0.000949 µM, first compound 0.1 µM) 22.8% | viability, T/C (second compound 0.000949 µM, first compound 0.316 µM) 22.8% | viability, T/C (second compound 0.000949 µM, first compound 1 µM) 19.9% | viability, T/C (second compound 0.003 µM, first compound 0.00316 µM) 26.6% | viability, T/C (second compound 0.003 µM, first compound 0.01 µM) 22.7% | viability, T/C (second compound 0.003 µM, first compound 0.0316 µM) 21.4% | viability, T/C (second compound 0.003 µM, first compound 0.1 µM) 24.5% | viability, T/C (second compound 0.003 µM, first compound 0.316 µM) 23.2% | viability, T/C (second compound 0.003 µM, first compound 1 µM) 19% | viability, T/C (second compound 0.00949 µM, first compound 0.00316 µM) 24.7% | viability, T/C (second compound 0.00949 µM, first compound 0.01 µM) 21.1% | viability, T/C (second compound 0.00949 µM, first compound 0.0316 µM) 22.7% | viability, T/C (second compound 0.00949 µM, first compound 0.1 µM) 23.4% | viability, T/C (second compound 0.00949 µM, first compound 0.316 µM) 20.6% | viability, T/C (second compound 0.00949 µM, first compound 1 µM) 20.5% | viability, T/C (second compound 0.03 µM, first compound 0.00316 µM) 22.4% | viability, T/C (second compound 0.03 µM, first compound 0.01 µM) 22.5% | viability, T/C (second compound 0.03 µM, first compound 0.0316 µM) 25.3% | viability, T/C (second compound 0.03 µM, first compound 0.1 µM) 24.8% | viability, T/C (second compound 0.03 µM, first compound 0.316 µM) 18.7% | viability, T/C (second compound 0.03 µM, first compound 1 µM) 23.6% | viability, T/C (second compound 0.0949 µM, first compound 0.00316 µM) 22.7% | viability, T/C (second compound 0.0949 µM, first compound 0.01 µM) 23.9% | viability, T/C (second compound 0.0949 µM, first compound 0.0316 µM) 23.4% | viability, T/C (second compound 0.0949 µM, first compound 0.1 µM) 23.4% | viability, T/C (second compound 0.0949 µM, first compound 0.316 µM) 22.6% | viability, T/C (second compound 0.0949 µM, first compound 1 µM) 25.4% | viability, T/C (second compound 0.3 µM, first compound 0.00316 µM) 22.7% | viability, T/C (second compound 0.3 µM, first compound 0.01 µM) 25% | viability, T/C (second compound 0.3 µM, first compound 0.0316 µM) 22.4% | viability, T/C (second compound 0.3 µM, first compound 0.1 µM) 21.4% | viability, T/C (second compound 0.3 µM, first compound 0.316 µM) 21% | viability, T/C (second compound 0.3 µM, first compound 1 µM) 28%

CC1(C)CCC(Nc2ncc(C(F)(F)F)c(-c3c[nH]c4c(P(C)(C)=O)c(C#N)ccc34)n2)CN1 (stereo unspecified) + CCn1c(-c2cccnc2C(C)OC)c2c3cc(ccc31)N1CCOC(CC(NC(=O)C(C(C)C)N(C)C(=O)C3(F)CCN(C(=O)C#CC(C)(C)N(C)C)CC3)C(=O)N3CCCC(N3)C(=O)OCC(C)(C)C2)C1
> 9.02: pIC50 (second compound 0.000949 µM) | pIC50 (second compound 0.003 µM) | pIC50 (second compound 0.00949 µM) | pIC50 (second compound 0.03 µM) | pIC50 (second compound 0.0949 µM) | pIC50 (second compound 0.3 µM)
inactive: viability, T/C [1] 21% | viability, T/C [2] 20.7% | viability, T/C [3] 16.3% | viability, T/C [4] 23.5% | viability, T/C [5] 24.3% | viability, T/C [6] 15.7% | viability, T/C [7] 25.2% | viability, T/C [8] 19.5% | viability, T/C [9] 18.2% | viability, T/C [10] 22.9% | viability, T/C [11] 22.2% | viability, T/C [12] 16.6% | viability, T/C [13] 21.4% | viability, T/C [14] 20.2% | viability, T/C [15] 21.2% | viability, T/C [16] 19.6% | viability, T/C [17] 21.2% | viability, T/C [18] 21.9% | viability, T/C [19] 20.4% | viability, T/C [20] 17% | viability, T/C [21] 22.8% | viability, T/C [22] 21.7% | viability, T/C [23] 19% | viability, T/C [24] 21.6% | viability, T/C [25] 19.5% | viability, T/C [26] 20.3% | viability, T/C [27] 21% | viability, T/C [28] 23.4% | viability, T/C [29] 19% | viability, T/C [30] 23.7% | viability, T/C [31] 20.7% | viability, T/C [32] 19.9% | viability, T/C [33] 25.6% | viability, T/C [34] 20.9% | viability, T/C [35] 21.4% | viability, T/C [36] 25.6%

CCc1c2c(nc3ccc(O)cc13)-c1cc3c(c(=O)n1C2)COC(=O)[C@]3(O)CC + CCn1c(-c2cccnc2C(C)OC)c2c3cc(ccc31)N1CCOC(CC(NC(=O)C(C(C)C)N(C)C(=O)C3(F)CCN(C(=O)C#CC(C)(C)N(C)C)CC3)C(=O)N3CCCC(N3)C(=O)OCC(C)(C)C2)C1
inactive: viability, T/C [1] 23.7% | viability, T/C [2] 18.9% | viability, T/C [3] 14.2% | viability, T/C [4] 17.5% | viability, T/C [5] 11.7% | viability, T/C [7] 25.2% | viability, T/C [8] 21.1% | viability, T/C [9] 14.8% | viability, T/C [10] 14.4% | viability, T/C [11] 12.2% | viability, T/C [13] 22.4% | viability, T/C [14] 16.3% | viability, T/C [15] 17.1% | viability, T/C [16] 13.5% | viability, T/C [17] 11.2% | viability, T/C [19] 22.5% | viability, T/C [20] 18.8% | viability, T/C [21] 18% | viability, T/C [22] 16.2% | viability, T/C [23] 9.36% | viability, T/C [25] 19.7% | viability, T/C [26] 19.7% | viability, T/C [27] 17.2% | viability, T/C [28] 15.3% | viability, T/C [29] 10.7% | viability, T/C [31] 21.8% | viability, T/C [32] 18% | viability, T/C [33] 16.4% | viability, T/C [34] 14.2% | viability, T/C [35] 10.8%
active: viability, T/C [6] 6.82% | viability, T/C [12] 7.12% | viability, T/C [18] 7.23% | viability, T/C [24] 8.84% | viability, T/C [30] 9.1% | viability, T/C [36] 7.87%
> 9.02: pIC50 (second compound 0.000949 µM) | pIC50 (second compound 0.003 µM) | pIC50 (second compound 0.00949 µM) | pIC50 (second compound 0.03 µM) | pIC50 (second compound 0.0949 µM) | pIC50 (second compound 0.3 µM)
